Experimental findings from ChEMBL document CHEMBL1201862, “PubChem BioAssay data set” (2004) are described below.

Molecules are shown by their SMILES.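 Each compound was tested at five concentrations against cells in 96-well plates for 48 hours. Abbreviation: GI50, concentration required for 50% inhibition of growth.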 Activity calls are given as the source filed them. Rule as the data show it: active = GI50 up to about 1.1 µM and inactive = higher.

What all share (assay): inhibition of tumour cell growth, NCI panel, 48 h
The subject of experiment [1] is SNB-75.
Experiment [2] has as its system PC-3.
The test system of experiment [3] is K562.
Experiment [4] relates to RPMI-8226.
For experiment [5], the system named is SNB-19.
Experiment [6] relates to MDA-MB-231.
For experiment [7], the system named is U-251.
Experiment [8] has as its system HT-29.
Experiment [9] deals with CCRF-CEM.
The test system of experiment [10] is Malme-3M.
Experiment [11] has as its system A549.
For experiment [12], the system named is HCT-15.
The test system of experiment [13] is SF-295.
Experiment [14] has as its system HCT-116.
The test system of experiment [15] is EKVX.
Experiment [16] concerns HL-60.
The subject of experiment [17] is SK-MEL-2.
Experiment [18] relates to NCI/ADR-RES.
In experiment [19] the test system is IGROV-1.
In experiment [20] the test system is DU-145.

As to `CC(=O)c1ccc(Oc2c3ccccc3nc3ccccc23)cc1`, the GI50 is 16.1 µM (inactive) in experiment [1]; 6.89 µM (inactive) in [2]; 3.41 µM (inactive) in experiment [3]; 2.77 µM (inactive) in experiment [4]; 18.7 µM (inactive) in [5]; 11.6 µM (inactive) in experiment [6]. In addition, the GI50 was 11.6 µM (inactive) in experiment [7]; 2.73 µM (inactive) in experiment [8]; 2.82 µM (inactive) in [9]; 12.6 µM (inactive) in experiment [10]; 9.35 µM (inactive) in [11]; 4.01 µM in experiment [12]. In addition, the GI50 in [13] was 14.6 µM (inactive); in experiment [14], 2.7 µM (inactive); in experiment [15], 17.5 µM (inactive); in [16], 0.207 µM (active); in [17], 8.59 µM (inactive); in experiment [18] it was 11.3 µM (inactive). In addition, the values for the GI50 in experiment [19] and in [20] were 4.89 µM (inactive) and 4.5 µM (inactive), respectively.
For `N#Cc1sc2c(c1OC(=O)c1cccs1)c(=O)n(-c1ccccc1)c(=S)n2-c1ccccc1`, the GI50 in experiment [1] is 38.7 µM (inactive); in experiment [2], 18 µM (inactive); in [3] it was 22 µM (inactive); in [4] it was 18.7 µM (inactive); in experiment [5] it was 26.5 µM (inactive); in [6] it was 20.1 µM (inactive). Also, the GI50 in [7] is 20.2 µM (inactive); in experiment [8], 29.5 µM (inactive); in [9], > 10 µM (inactive); in experiment [10] it was 18.2 µM (inactive); in experiment [11], 31 µM (inactive); in experiment [12], 17.3 µM. Also, the GI50 in [13] was 21 µM (inactive); in [14], 15.2 µM (inactive); in [15], 33.2 µM (inactive); in experiment [16] it was 21.3 µM (inactive); in experiment [17] it was 21.1 µM (inactive); in experiment [18] it was 21.8 µM (inactive). Besides, the figures for the GI50 in experiment [19] and in [20] were 19.8 µM (inactive) and 32.4 µM (inactive), respectively.
For the molecule `c1ccc2c(c1)cc1n2CCc2c-1[nH]c1ccccc21`, the GI50 in experiment [1], in [2], in [3], in [4], in experiment [5] and in [6] was > 10 µM (inactive) in each case. For the same molecule, the GI50 in [7] was > 10 µM (inactive); in [8] it was > 10 µM (inactive); in [9], > 10 µM (inactive); in [10], > 10 µM (inactive); in experiment [11] it was > 10 µM (inactive); in experiment [12] it was 5.12 µM. Besides, the GI50 in [13], in experiment [14], in experiment [15], in experiment [16], in experiment [17] and in experiment [18] was > 10 µM (inactive) each time. For the same molecule, the GI50 in experiment [19] and in [20] was > 10 µM (inactive) in each case.
On to `Nc1ccc2c(SCC(=O)Nc3ccccc3-c3ccccc3NC(=O)CSc3c4ccccc4nc4cc(N)ccc34)c3ccccc3nc2c1`, for which the GI50 is 38.5 µM (inactive) in [1]; 22.2 µM (inactive) in [2]; 2.71 µM (inactive) in [3]; 8.47 µM (inactive) in experiment [4]; 18.9 µM (inactive) in [5]; > 50.4 µM (inactive) in experiment [6]. The GI50 in experiment [7] is 22 µM (inactive); in experiment [8] it was 29.6 µM (inactive); in experiment [9], 2.79 µM (inactive); in experiment [10], 22.9 µM (inactive); in experiment [11] it was 41 µM (inactive); in [12], 31.1 µM. Further, the GI50 was 31.5 µM (inactive) in experiment [13]; 24.5 µM (inactive) in [14]; 39.6 µM (inactive) in experiment [15]; 3.21 µM (inactive) in experiment [16]; 25.6 µM (inactive) in [17]; 32.6 µM (inactive) in [18]. In addition, the GI50 in experiment [19] is 27 µM (inactive); in experiment [20], 24.2 µM (inactive).
Turning to `O=C1c2cccc3cccc(c23)C(=O)N1CCCNCCCCNCCCN1C(=O)c2cccc3cccc(c23)C1=O`, the GI50 in experiment [1] is 0.202 µM (active); in [2], 0.17 µM (active); in experiment [3], 0.0226 µM (active); in experiment [4], < 0.0205 µM (active); in [5], 0.124 µM (active); in experiment [6] it was 0.137 µM (active). Besides, the GI50 was 0.0402 µM (active) in experiment [7]; 0.0315 µM (active) in [8]; < 0.01 µM (active) in experiment [9]; 0.144 µM (active) in experiment [10]; 0.0495 µM (active) in experiment [11]; 3.22 µM in experiment [12]. Besides, the GI50 is 0.658 µM (active) in experiment [13]; 0.0738 µM (active) in experiment [14]; 0.986 µM (active) in experiment [15]; 0.32 µM (active) in experiment [16]; 0.521 µM (active) in experiment [17]; 14.5 µM (inactive) in experiment [18]. The GI50 in experiment [19] was 0.0697 µM (active); in experiment [20] it was 0.0887 µM (active).
As for `CSC1=N/C(=C\c2ccccc2)C(=O)N1CN1CCOCC1`, the GI50 in [1] is 69.2 µM (inactive); in experiment [2], 68.9 µM (inactive); in experiment [3], 41.9 µM (inactive); in experiment [4], 30.1 µM (inactive); in [5] it was 52.5 µM (inactive); in experiment [6] it was > 100 µM (inactive). The GI50 in experiment [7] was 64.4 µM (inactive); in experiment [8] it was 30.8 µM (inactive); in experiment [9], 36 µM (inactive); in experiment [10], 57.3 µM (inactive); in [11], > 100 µM (inactive); in [12], 33.3 µM. In addition, the GI50 is > 100 µM (inactive) in [13]; 39.4 µM (inactive) in [14]; 50.6 µM (inactive) in [15]; 54.6 µM (inactive) in [16]; > 100 µM (inactive) in experiment [17]; 17.1 µM (inactive) in experiment [18]. The GI50 was 52.7 µM (inactive) in [19] and 96.2 µM (inactive) in [20].
Turning to `CC(=O)NC1C(OC2C(CO)OC(OCC3OC(n4ccc(N)nc4=O)C(O)C3O)C(NC(C)=O)C2O)OC(CO)C(O)C1O` (stereo not given), the GI50 in [1], in experiment [2], in experiment [3], in experiment [4], in experiment [5] and in [6] was > 100 µM (inactive) in each case. The GI50 in experiment [7] was > 100 µM (inactive); in experiment [8] it was > 100 µM (inactive); in experiment [9], 12.1 µM (inactive); in experiment [10], 5.97 µM (inactive); in [11], > 100 µM (inactive); in [12] it was > 100 µM. The GI50 was > 100 µM (inactive) in experiment [13]; > 100 µM (inactive) in [14]; > 100 µM (inactive) in experiment [15]; > 34.6 µM (inactive) in experiment [16]; > 100 µM (inactive) in [17]; > 100 µM (inactive) in experiment [18]. Moreover, the GI50 in experiment [19] and in experiment [20] was > 100 µM (inactive) in each case.
